Consider 19 compounds from ChEMBL document CHEMBL4513161, “CO-ADD screening of MMV (CH) - Pandemic Response Box” (2021).

One assay deals with Escherichia coli. The assay is described as follows: microbe, parasite or virus in culture. The following applies: ATCC 25922, 18 h, ASSAY_TEST Inhibition of Bacterial Growth, detection method Absorption (OD600), MEDIA CAMHB, plate type 384well, NBS, CORNING #3640.
In the next assay the test system is HEK293. Nature of the assay: cells. In kind it is functional, Homo sapiens, ATCC CRL1573. To be noted: ASSAY_TEST Inhibition of Cell Viability, detection method Resazurin, Fluorescence (ex560/em590), MEDIA DMEM with 10% FBS, plate type 384well, TC, CORNING #3712, time 18 hr, read-out: CC50. Background: The colour change of resazurin is a common sign of viable cells or microbes.

A further assay concerns Klebsiella pneumoniae. The assay is described as follows: microbe, parasite or virus in culture. The following applies: ATCC 700603, 18 h, ASSAY_TEST Inhibition of Bacterial Growth, detection method Absorption (OD600), MEDIA CAMHB, plate type 384well, NBS, CORNING #3640.
A further assay deals with Staphylococcus aureus. Nature of the assay: microbe, parasite or virus in culture. To be noted: ATCC 43300, 18 h, ASSAY_TEST Inhibition of Bacterial Growth, detection method Absorption (OD600), MEDIA CAMHB, plate type 384well, NBS, CORNING #3640.
The subject of the next assay is Candida albicans. The assay is described as follows: microbe, parasite or virus in culture. The following applies: ATCC 90028, ASSAY_TEST Inhibition of Fungal Growth, detection method Absorption (OD530), plate type 384well, NBS, CORNING #3640.
For assay [1], the system named is Pseudomonas aeruginosa. Nature of the assay: Antibacterial activity against Pseudomonas aeruginosa PAO397 [PAO1 d(mexAB-oprM) d(mexCD-oprJ) d(mexEF-oprN) d(mexJKL) d(mexXY) d(opmH)] (CO-ADD:GN_211); MIC in CAMBH media using NBS plates, by OD(600). In kind it is functional. To be noted: ASSAY_TEST Inhibition of Bacterial Growth, detection method Absorption (OD600), MEDIA CAMHB, plate type 384well, CORNING #3640, time 18 hr.

In another assay the test system is Acinetobacter baumannii. The assay is described as follows: microbe, parasite or virus in culture. The following applies: ATCC 19606, 18 h, ASSAY_TEST Inhibition of Bacterial Growth, detection method Absorption (OD600), MEDIA CAMHB, plate type 384well, NBS, CORNING #3640.
In assay [2] the test system is Pseudomonas aeruginosa. Nature of the assay: microbe, parasite or virus in culture. To be noted: ATCC 27853, 18 h, ASSAY_TEST Inhibition of Bacterial Growth, detection method Absorption (OD600), MEDIA CAMHB, plate type 384well, NBS, CORNING #3640.
Setting [3] is: Homo sapiens, ATCC CRL1573, HEK293.

As usually defined, the CC50 is the concentration that lowers cell viability or growth by half.

Converted amounts (≈) assume the structure as drawn.

Consider `CC(C)CCN1C(=O)C(C2=NS(=O)(=O)c3cc(NS(C)(=O)=O)ccc3N2)=C(O)[C@@H]2[C@H]3CC[C@H](C3)[C@@H]21`, for which the MIC with Escherichia coli, against Klebsiella pneumoniae, against Staphylococcus aureus, against Candida albicans, against Pseudomonas aeruginosa [1] and in the assay with Cryptococcus neoformans was > 20 µM each time. In addition, the MIC in the assay on Acinetobacter baumannii and against Pseudomonas aeruginosa [2] was > 20 µM throughout. The CC50 with HEK293 (setting [3]) was > 20 µM.
For the compound `Cc1cc(CCOc2c(C)cc(-c3nnn(C)n3)cc2C)on1`, the MIC against Escherichia coli, in the assay with Klebsiella pneumoniae, against Staphylococcus aureus, against Candida albicans, with Pseudomonas aeruginosa [1] and against Cryptococcus neoformans was > 20 µM each time. Moreover, the MIC with Acinetobacter baumannii and against Pseudomonas aeruginosa [2] was > 20 µM in each case. The CC50 with HEK293 (setting [3]) is > 20 µM.
Regarding `C[C@@H](NC(=O)c1cccc(-c2cnc(-c3cc4ccccc4cn3)[nH]2)c1)c1ccc(F)cc1`, the MIC with Escherichia coli, in the assay with Klebsiella pneumoniae, against Staphylococcus aureus, against Candida albicans, with Pseudomonas aeruginosa [1] and with Cryptococcus neoformans was > 20 µM throughout. The MIC against Acinetobacter baumannii and against Pseudomonas aeruginosa [2] was > 20 µM each time. Also, in the assay on HEK293 (setting [3]), the CC50 came out at 10.8 µM.
As for `N=c1n(CCN2CCCCC2)c2ccccc2n1CC(O)COc1ccc(Cl)cc1Cl` (centres undefined), the MIC in the assay with Escherichia coli, in the assay with Klebsiella pneumoniae, against Staphylococcus aureus, against Candida albicans, against Cryptococcus neoformans and in the assay with Acinetobacter baumannii was > 20 µM in each case. Besides, the CC50 in the assay with HEK293 (setting [3]) stood at 6.89 µM.
With `CCN(CC)CCn1c(=N)n(CC(O)COc2ccc(Cl)cc2Cl)c2ccccc21` (centres undefined), the MIC in the assay with Escherichia coli, with Klebsiella pneumoniae, against Staphylococcus aureus, against Candida albicans, with Cryptococcus neoformans and in the assay on Acinetobacter baumannii was > 20 µM in each case. The same compound had an MIC in the assay on Pseudomonas aeruginosa [2] of 20 µM (≈ 9.03 µg/mL). For the same compound, the CC50 in the assay on HEK293 (setting [3]) amounted to 4.49 µM.
On to `O=C1C=C(c2ccccc2)S(=O)(=O)c2ccccc21`, for which the MIC is > 20 µM against Escherichia coli; > 20 µM against Klebsiella pneumoniae; > 20 µM in the assay on Staphylococcus aureus; 5 µM (≈ 1.35 µg/mL) with Candida albicans; > 20 µM against Pseudomonas aeruginosa [1]; 5 µM (≈ 1.35 µg/mL) with Cryptococcus neoformans. Also, the MIC in the assay on Acinetobacter baumannii and in the assay with Pseudomonas aeruginosa [2] was > 20 µM throughout. Also, in the assay with HEK293 (setting [3]), the half-maximal cytotoxic concentration (CC50) is 4.03 µM.
In the case of `Cn1c2ccccc2c(=O)c2c(O)cccc21`, the MIC against Escherichia coli, against Klebsiella pneumoniae, with Staphylococcus aureus, against Candida albicans, against Pseudomonas aeruginosa [1] and in the assay on Cryptococcus neoformans was > 20 µM throughout. The MIC in the assay with Acinetobacter baumannii and with Pseudomonas aeruginosa [2] was > 20 µM each time. Moreover, in the assay with HEK293 (setting [3]), the CC50 is > 20 µM.
As to `CN(C)CCCNC(=O)c1ccc(-c2cc(O)c3ncccc3c2)cc1`, the MIC against Escherichia coli, against Klebsiella pneumoniae, with Staphylococcus aureus, in the assay with Candida albicans, with Pseudomonas aeruginosa [1] and against Cryptococcus neoformans was > 20 µM throughout. For the same compound, the MIC in the assay with Acinetobacter baumannii and against Pseudomonas aeruginosa [2] was > 20 µM throughout. In addition, in the assay on HEK293 (setting [3]), the CC50 worked out at 16.6 µM.
As for `O=C(CSc1nnc(Br)n1-c1ccc(C2CC2)c2ccccc12)Nc1ccc(C(=O)O)cc1Cl`, the MIC in the assay on Escherichia coli, with Klebsiella pneumoniae, with Staphylococcus aureus, in the assay with Candida albicans, with Pseudomonas aeruginosa [1] and in the assay on Cryptococcus neoformans was > 20 µM in each case. For the same compound, the MIC against Acinetobacter baumannii and against Pseudomonas aeruginosa [2] was > 20 µM throughout. Also, the CC50 in the assay with HEK293 (setting [3]) was > 20 µM.
For the compound `CN1c2ccc(Cl)cc2N(c2ccccc2)C(=O)c2cn(Cc3ccc(CN4CCOCC4)cc3)nc21`, the MIC in the assay on Escherichia coli, against Klebsiella pneumoniae, against Staphylococcus aureus, with Candida albicans, against Pseudomonas aeruginosa [1] and with Cryptococcus neoformans was > 20 µM in each case. The MIC in the assay with Acinetobacter baumannii and against Pseudomonas aeruginosa [2] was > 20 µM throughout. Also, in the assay with HEK293 (setting [3]), the CC50 is > 20 µM.
Regarding `CN1C(=O)C(c2ccccc2)C(=O)N(c2ccccc2)c2cc(C(F)(F)F)ccc21` (centres undefined), the MIC against Escherichia coli, with Klebsiella pneumoniae, with Staphylococcus aureus, in the assay on Candida albicans, with Pseudomonas aeruginosa [1] and against Cryptococcus neoformans was > 20 µM in each case. Also, the MIC in the assay on Acinetobacter baumannii and in the assay with Pseudomonas aeruginosa [2] was > 20 µM in each case. Further, in the assay on HEK293 (setting [3]), the half-maximal cytotoxic concentration (CC50) is > 20 µM.
For `CC(C)(C)NC(=O)[C@@H]1CN(Cc2cnc3occc3c2)CCN1C[C@@H](O)C[C@@H](Cc1ccccc1)C(=O)N[C@H]1c2ccccc2C[C@H]1O`, the MIC in the assay with Escherichia coli, in the assay with Klebsiella pneumoniae, against Staphylococcus aureus, in the assay with Candida albicans, against Pseudomonas aeruginosa [1] and in the assay with Cryptococcus neoformans was > 20 µM throughout. In addition, the MIC against Acinetobacter baumannii and with Pseudomonas aeruginosa [2] was > 20 µM in each case. Besides, in the assay on HEK293 (setting [3]), the CC50 is > 20 µM.
As for `O=C(O)C[C@H]1CC[C@H](c2ccc(-c3ccc(Nc4ccc(C(F)(F)F)nc4)cn3)cc2)CC1`, the MIC with Escherichia coli, in the assay with Klebsiella pneumoniae, in the assay on Staphylococcus aureus, in the assay on Candida albicans, in the assay on Pseudomonas aeruginosa [1] and in the assay with Cryptococcus neoformans was > 20 µM in each case. In addition, the MIC in the assay with Acinetobacter baumannii and against Pseudomonas aeruginosa [2] was > 20 µM throughout. Also, the CC50 in the assay on HEK293 (setting [3]) is > 20 µM.
In the case of `CC(Oc1ccc(Cl)cc1Cl)C(=O)NCc1ccc2c(c1)OCO2` (centres undefined), the CC50 with HEK293 (setting [3]) was > 20 µM. The MIC against Cryptococcus neoformans is > 20 µM.
As to `Cc1nc(N(C)C(=O)Cc2ccc(-c3ccccn3)cc2)sc1S(N)(=O)=O`, the MIC in the assay on Escherichia coli, with Klebsiella pneumoniae, against Staphylococcus aureus, in the assay on Candida albicans, against Pseudomonas aeruginosa [1] and in the assay with Cryptococcus neoformans was > 20 µM each time. Besides, the MIC in the assay with Acinetobacter baumannii and against Pseudomonas aeruginosa [2] was > 20 µM in each case. Besides, in the assay on HEK293 (setting [3]), the CC50 is > 20 µM.
With `Nc1nc(F)nc2c1ncn2[C@H]1O[C@@H](CO)[C@H](O)[C@@H]1O`, the MIC in the assay with Escherichia coli, in the assay with Klebsiella pneumoniae, with Staphylococcus aureus, with Candida albicans, with Pseudomonas aeruginosa [1] and in the assay on Cryptococcus neoformans was > 20 µM in each case. Further, the MIC with Acinetobacter baumannii and in the assay with Pseudomonas aeruginosa [2] was > 20 µM throughout. In the assay on HEK293 (setting [3]), the CC50 was 0.535 µM.
In the case of `Clc1ccc(COC(Cn2ccnc2)c2ccc(Cl)cc2Cl)c(Cl)c1` (centres undefined), the CC50 in the assay with HEK293 is > 20 µM. The MIC in the assay with Pseudomonas aeruginosa [1] was > 20 µM; against Cryptococcus neoformans, 0.625 µM (≈ 0.26 µg/mL).
`C=CCN(C(=O)OCc1ccc([N+](=O)[O-])cc1)C1CCN(CC[C@](C)(CN(C)S(=O)(=O)c2ccccc2)c2ccccc2)CC1`: the MIC in the assay with Escherichia coli, in the assay on Klebsiella pneumoniae, with Staphylococcus aureus, against Candida albicans, in the assay with Pseudomonas aeruginosa [1] and with Cryptococcus neoformans was > 20 µM in each case. Further, the MIC in the assay with Acinetobacter baumannii and with Pseudomonas aeruginosa [2] was > 20 µM in each case. In the assay with HEK293 (setting [3]), the CC50 was > 20 µM.
As to `CC1(C)[C@H](C(=O)O)N2C(=O)C[C@H]2S1(=O)=O` [SULBACTAM], the MIC in the assay on Escherichia coli, in the assay on Staphylococcus aureus, with Candida albicans, with Pseudomonas aeruginosa [1], in the assay with Cryptococcus neoformans and against Acinetobacter baumannii was > 20 µM in each case. Moreover, the MIC in the assay on Pseudomonas aeruginosa [2] was 2.5 µM (≈ 0.583 µg/mL). In addition, the CC50 in the assay on HEK293 (setting [3]) is > 20 µM.
